Values after ≈ are worked out from the molar mass of the structure shown. Active and inactive are the calls of the source. The calls are words filed in the database; no cut-off is given here.
What was measured:
Candida albicans [1] = assay: Antifungal activity against Candida albicans ATCC 10231 at 400 ug after 24 to 48 hr by disk diffusion method; format: functional; conditions: read-out: DIZ
Pseudomonas aeruginosa [2] = assay: Antibacterial activity against Pseudomonas aeruginosa ATCC 15442 at 400 ug after 18 hr by disk diffusion method; format: functional; conditions: ATCC 15442, 18 h, read-out: DIZ
Candida albicans [3] = assay: Antifungal activity against Candida albicans ATCC 10231 after 18 hr; format: functional; conditions: ATCC 10231, 18 h
[4] = tested on: Human immunodeficiency virus 1; assay: Antiviral activity against Human immunodeficiency virus 1 infected human MT4 cells assessed as inhibition of virus-induced cytopathogenicity after 4 days by MTT assay; format: functional, organism-based; conditions: Human immunodeficiency virus 1, MT4, 96 h
Candida parapsilosis [5] = assay: Antifungal activity against Candida parapsilosis ATCC 22019 at 400 ug after 24 to 48 hr by disk diffusion method; format: functional; conditions: Lodderomyces parapsilosis, read-out: DIZ
Staphylococcus aureus [6] = assay: Antibacterial activity against Staphylococcus aureus ATCC 25923 after 18 hr; format: functional; conditions: ATCC 25923, 18 h
Pseudomonas aeruginosa [7] = assay: Antibacterial activity against Pseudomonas aeruginosa ATCC 15442 after 18 hr; format: functional; conditions: ATCC 15442, 18 h
Staphylococcus aureus [8] = assay: Antibacterial activity against Staphylococcus aureus NCTC 4163 at 400 ug after 18 hr by disk diffusion method; format: functional; conditions: NCTC 4163, 18 h, read-out: DIZ
Escherichia coli [9] = assay: Antibacterial activity against Escherichia coli NCTC 8196 at 400 ug after 18 hr by disk diffusion method; format: functional
Bacillus subtilis [10] = assay: Antibacterial activity against Bacillus subtilis ATCC 6633 after 18 hr; format: functional; conditions: ATCC 6633, 18 h
[11] = Cytotoxicity against Homo sapiens (human) MT4 cells after 96 hr by MTT assay; format: cell-based
Candida parapsilosis [12] = assay: Antifungal activity against Candida parapsilosis ATCC 22019 after 18 hr; format: functional; conditions: Lodderomyces parapsilosis, ATCC 22019, 18 h
Escherichia coli [13] = assay: Antibacterial activity against Escherichia coli NCTC 8196 after 18 hr; format: functional, organism-based
Staphylococcus aureus [14] = assay: Antibacterial activity against Staphylococcus aureus ATCC 29213 after 18 hr; format: functional; conditions: ATCC 29213, 18 h
[15] = tested on: Bordetella bronchiseptica; assay: Antibacterial activity against Bordetella bronchiseptica ATCC 461 at 400 ug after 18 hr by disk diffusion method; format: functional
Proteus vulgaris [16] = assay: Antibacterial activity against Proteus vulgaris NCTC 4635 at 400 ug after 18 hr by disk diffusion method; format: functional; conditions: NCTC 4635, 18 h, read-out: DIZ
Candida albicans [17] = assay: Antifungal activity against Candida albicans ATCC 90028 at 400 ug after 24 to 48 hr by disk diffusion method; format: functional; conditions: read-out: DIZ
Staphylococcus aureus [18] = assay: Antibacterial activity against Staphylococcus aureus ATCC 29213 at 400 ug after 18 hr by disk diffusion method; format: functional; conditions: ATCC 29213, 18 h, read-out: DIZ
Escherichia coli [19] = assay: Antibacterial activity against Escherichia coli ATCC 10538 at 400 ug after 18 hr by disk diffusion method; format: functional
Enterococcus hirae [20] = assay: Antibacterial activity against Enterococcus hirae ATCC 10541 at 400 ug after 18 hr by disk diffusion method; format: functional; conditions: ATCC 10541, 18 h, read-out: DIZ
[21] = tested on: Bordetella bronchiseptica; assay: Antibacterial activity against Bordetella bronchiseptica ATCC 461 after 18 hr; format: functional, organism-based
Enterococcus hirae [22] = assay: Antibacterial activity against Enterococcus hirae ATCC 10541 after 18 hr; format: functional; conditions: ATCC 10541, 18 h
Candida albicans [23] = assay: Antifungal activity against Candida albicans ATCC 90028 after 18 hr; format: functional; conditions: ATCC 90028, 18 h
Escherichia coli [24] = assay: Antibacterial activity against Escherichia coli ATCC 10538 after 18 hr; format: functional, organism-based
Staphylococcus aureus [25] = assay: Antibacterial activity against Staphylococcus aureus ATCC 25923 at 400 ug after 18 hr by disk diffusion method; format: functional; conditions: ATCC 25923, 18 h, read-out: DIZ
Staphylococcus aureus [26] = assay: Antibacterial activity against Staphylococcus aureus ATCC 6538P at 400 ug after 18 hr by disk diffusion method; format: functional; conditions: read-out: DIZ
Staphylococcus aureus [27] = assay: Antibacterial activity against Staphylococcus aureus NCTC 4163 after 18 hr; format: functional; conditions: NCTC 4163, 18 h
Bacillus subtilis [28] = assay: Antibacterial activity against Bacillus subtilis ATCC 6633 at 400 ug after 18 hr by disk diffusion method; format: functional; conditions: ATCC 6633, 18 h, read-out: DIZ
Escherichia coli [29] = assay: Antibacterial activity against Escherichia coli ATCC 25922 at 400 ug after 18 hr by disk diffusion method; format: functional
Escherichia coli [30] = assay: Antibacterial activity against Escherichia coli ATCC 25922 after 18 hr; format: functional, organism-based
Proteus vulgaris [31] = assay: Antibacterial activity against Proteus vulgaris NCTC 4635 after 18 hr; format: functional; conditions: NCTC 4635, 18 h
Pseudomonas aeruginosa [32] = assay: Antibacterial activity against Pseudomonas aeruginosa NCTC 6749 after 18 hr; format: functional, organism-based
Pseudomonas aeruginosa [33] = assay: Antibacterial activity against Pseudomonas aeruginosa NCTC 6749 at 400 ug after 18 hr by disk diffusion method; format: functional, organism-based
Staphylococcus aureus [34] = assay: Antibacterial activity against Staphylococcus aureus ATCC 6538P after 18 hr; format: functional

| MIC (Candida albicans [3]) [µg/mL] | MIC (Staphylococcus aureus [6]) [µg/mL] | MIC (Pseudomonas aeruginosa [7]) [µg/mL] | MIC (Bacillus subtilis [10]) [µg/mL] | MIC (Candida parapsilosis [12]) [µg/mL] | MIC (Escherichia coli [13]) | MIC (Staphylococcus aureus [14]) [µg/mL] | MIC [21] | MIC (Enterococcus hirae [22]) [µg/mL] | MIC (Candida albicans [23]) [µg/mL] | SMILES | zone of inhibition at 400 µg/disc (Candida albicans [1]) [mm] | zone of inhibition at 400 µg/disc (Pseudomonas aeruginosa [2]) [mm] | EC50 [4] [µM] | zone of inhibition at 400 µg/disc (Candida parapsilosis [5]) [mm] | zone of inhibition at 400 µg/disc (Staphylococcus aureus [8]) [mm] | CC50 at 96 h [11] [µM] | zone of inhibition at 400 µg/disc (Proteus vulgaris [16]) [mm] | zone of inhibition at 400 µg/disc (Candida albicans [17]) [mm] | zone of inhibition at 400 µg/disc (Staphylococcus aureus [18]) [mm] | zone of inhibition at 400 µg/disc (Enterococcus hirae [20]) [mm] | further results |
| --- | --- | --- | --- | --- | --- | --- | --- | --- | --- | --- | --- | --- | --- | --- | --- | --- | --- | --- | --- | --- | --- |
| 200 (≈ 499 µM) | 25 (≈ 62.4 µM) | 12.5 (≈ 31.2 µM) | 12.5 (≈ 31.2 µM) | 200 (≈ 499 µM) | inactive | 25 (≈ 62.4 µM) | inactive | 50 (≈ 125 µM) | 200 (≈ 499 µM) | CC1(C)Cc2c(Br)c(Br)c(Br)c(O)c2O1 | 13 | 22 | > 60 | 13 | 17 | 60 | 15 | 14 | 18 | 16 | diameter of the inhibition zone (DIZ) (Escherichia coli [9]): inactive; diameter of the inhibition zone (DIZ) [15]: inactive; diameter of the inhibition zone (DIZ) (Escherichia coli [19]): inactive; MIC (Escherichia coli [24]): inactive; zone of inhibition at 400 µg/disc (Staphylococcus aureus [25]): 18 mm; zone of inhibition at 400 µg/disc (Staphylococcus aureus [26]): 19 mm; MIC (Staphylococcus aureus [27]): 25 µg/mL (≈ 62.4 µM); zone of inhibition at 400 µg/disc (Bacillus subtilis [28]): 21 mm; diameter of the inhibition zone (DIZ) (Escherichia coli [29]): inactive; MIC (Escherichia coli [30]): inactive; MIC (Proteus vulgaris [31]): 12.5 µg/mL (≈ 31.2 µM); MIC (Pseudomonas aeruginosa [32]): inactive; diameter of the inhibition zone (DIZ) (Pseudomonas aeruginosa [33]): inactive; MIC (Staphylococcus aureus [34]): 25 µg/mL (≈ 62.4 µM) |
| 200 (≈ 398 µM) | 100 (≈ 199 µM) | 25 (≈ 49.8 µM) | 12.5 (≈ 24.9 µM) | 100 (≈ 199 µM) | inactive | 100 (≈ 199 µM) | inactive | 50 (≈ 99.6 µM) | 200 (≈ 398 µM) | CN(C)CC(O)COc1c(Br)c(Br)c(Br)c2c1OC(C)(C)C2 (stereo not drawn) | 17 | 23 |  | 20 | 18 |  | 23 | 15 | 19 | 19 | zone of inhibition at 400 µg/disc (Escherichia coli [9]; NCTC 8196, 18 h, read-out: DIZ): 15 mm; zone of inhibition at 400 µg/disc ([15]; ATCC 461, 18 h, read-out: DIZ): 13 mm; zone of inhibition at 400 µg/disc (Escherichia coli [19]; ATCC 10538, 18 h, read-out: DIZ): 13 mm; MIC (Escherichia coli [24]): inactive; zone of inhibition at 400 µg/disc (Staphylococcus aureus [25]): 18 mm; zone of inhibition at 400 µg/disc (Staphylococcus aureus [26]): 19 mm; MIC (Staphylococcus aureus [27]): 50 µg/mL (≈ 99.6 µM); zone of inhibition at 400 µg/disc (Bacillus subtilis [28]): 24 mm; zone of inhibition at 400 µg/disc (Escherichia coli [29]; ATCC 25922, 18 h, read-out: DIZ): 13 mm; MIC (Escherichia coli [30]): inactive; MIC (Proteus vulgaris [31]): 25 µg/mL (≈ 49.8 µM); MIC (Pseudomonas aeruginosa [32]): inactive; diameter of the inhibition zone (DIZ) (Pseudomonas aeruginosa [33]): inactive; MIC (Staphylococcus aureus [34]): 50 µg/mL (≈ 99.6 µM) |
|  |  |  |  |  |  |  |  |  |  | CC1(C)Cc2c(Br)c(Br)c(Br)c(OCC(O)CN3CCN(c4ccccc4)CC3)c2O1 (stereo not drawn) |  |  | > 31 |  |  | 31 |  |  |  |  |  |

From ChEMBL document CHEMBL3045826, “Synthesis of new derivatives of 2,2-dimethyl-2,3-dihydro-7-benzo[b]furanol with potential antimicrobial activity” (Med Chem Res, 2009)
